One experiment has as its target T1, K-RAS G12C (Homo sapiens, UniProt P01116, G12C).
T1 construct: His tag; purchased Stratech
Kind of experiment: Compound depletion assay, K-RAS G12C. Type of experiment: binding. Particulars: G12C protein 20 μM, compound 8 μM, 25° C. The gist of the method: (§1)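 His-tagged K-RAS (20 μM) in 20 mM HEPES pH 7.5, 150 mM NaCl, 1 mM MgCl2 incubated with 8 μM compound (final) at 25 °C with agitation. At 0, 30, 180, 360, 1440 min, samples were acid/acetonitrile-quenched and remaining free compound quantified by LC-MS/MS against propranolol, as percent of time zero.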

The target in a further experiment is T2, K-RAS G12D (Homo sapiens, UniProt P01116, G12D).
T2 construct: His tag; purchased Stratech
Nature of the experiment: Compound depletion assay, K-RAS G12D. Type of experiment: binding. The note with it: G12D protein 20 μM, compound 8 μM, 25° C. The essentials: as §1

T2 sequence (P01116 1-188 isoform P01116-2 G12D): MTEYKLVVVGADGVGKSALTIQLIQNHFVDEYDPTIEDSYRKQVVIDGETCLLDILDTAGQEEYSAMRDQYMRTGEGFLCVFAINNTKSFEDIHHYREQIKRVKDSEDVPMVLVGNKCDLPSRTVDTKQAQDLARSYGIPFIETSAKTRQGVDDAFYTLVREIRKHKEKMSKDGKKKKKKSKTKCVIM
T1 sequence (P01116 1-188 isoform P01116-2 G12C): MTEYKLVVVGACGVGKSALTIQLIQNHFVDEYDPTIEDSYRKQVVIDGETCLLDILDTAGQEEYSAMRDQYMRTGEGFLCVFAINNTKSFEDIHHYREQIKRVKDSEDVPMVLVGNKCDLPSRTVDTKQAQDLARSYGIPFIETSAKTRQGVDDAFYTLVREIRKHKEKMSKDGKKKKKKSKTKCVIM

As to `C=CC(=O)N1CCN(c2cc(C(=O)Nc3cc(O)cc4ccccc34)nc(OCC3CCCCN3C)n2)C[C@@H]1CC#N` (stereo partly drawn) [Example 48, 6-[(3S)-3-(cyanomethyl)-4-prop-2-enoyl-piperazin-1-yl]-N-(3-hydroxy-1-naphthyl)-2-[(1-methyl-2-piperidyl)methoxy]pyrimidine-4-carboxamide], at K-RAS G12C, the “30 min Category (compound remaining at timepoint)” value is on record as “C (≤30% compound remaining at timepoint)”, the “3 hr Category (compound remaining at timepoint)” value was “C (≤30% compound remaining at timepoint)” and the “6 hr Category (compound remaining at timepoint)” value is reported as “C (≤30% compound remaining at timepoint)”. At K-RAS G12D, the “30 min Category (compound remaining at timepoint)” value is recorded as “A (≥70% compound remaining at timepoint)”, the “3 hr Category (compound remaining at timepoint)” value is “A (≥70% compound remaining at timepoint)” and the “6 hr Category (compound remaining at timepoint)” value is “A (≥70% compound remaining at timepoint)”.
As for `C=CC(=O)N1CCN(c2cc(C(=O)Nc3cc(O)cc4ccccc34)nc(NCC3CCCCN3C)n2)C[C@@H]1CC#N` (stereo partly drawn) [Example 49, 6-[(3S)-3-(cyanomethyl)-4-prop-2-enoyl-piperazin-1-yl]-N-(3-hydroxy-1-naphthyl)-2-[(1-methyl-2-piperidyl)methylamino]pyrimidine-4-carboxamide], on K-RAS G12C, the “30 min Category (compound remaining at timepoint)” value is listed as “B (30%-70% compound remaining at timepoint)”, the “3 hr Category (compound remaining at timepoint)” value is “C (≤30% compound remaining at timepoint)” and the “6 hr Category (compound remaining at timepoint)” value is given as “C (≤30% compound remaining at timepoint)”. Moreover, on K-RAS G12D, the “30 min Category (compound remaining at timepoint)” value is listed as “A (≥70% compound remaining at timepoint)”, the “3 hr Category (compound remaining at timepoint)” value was “A (≥70% compound remaining at timepoint)” and the “6 hr Category (compound remaining at timepoint)” value was “A (≥70% compound remaining at timepoint)”.
Turning to `C=CC(=O)N1CCN(c2cc(C(=O)Nc3cc(O)cc4ccccc34)nc(OCC3CCCN(C)C3)n2)C[C@@H]1CC#N` (stereo partly drawn) [Example 50, 6-[(3S)-3-(cyanomethyl)-4-prop-2-enoyl-piperazin-1-yl]-N-(3-hydroxy-1-naphthyl)-2-[(1-methyl-3-piperidyl)methoxy]pyrimidine-4-carboxamide], on K-RAS G12C, the “30 min Category (compound remaining at timepoint)” value is “C (≤30% compound remaining at timepoint)”, the “3 hr Category (compound remaining at timepoint)” value is listed as “C (≤30% compound remaining at timepoint)” and the “6 hr Category (compound remaining at timepoint)” value is “C (≤30% compound remaining at timepoint)”. At K-RAS G12D, the “30 min Category (compound remaining at timepoint)” value is “A (≥70% compound remaining at timepoint)”, the “3 hr Category (compound remaining at timepoint)” value is on record as “A (≥70% compound remaining at timepoint)” and the “6 hr Category (compound remaining at timepoint)” value is given as “A (≥70% compound remaining at timepoint)”.
Regarding `C=CC(=O)N1CCN(c2cc(C(=O)Nc3cc(O)cc4ccccc34)nc(OC[C@@H]3CCCN3CC)n2)C[C@@H]1CC#N` [Example 51, 6-[(3S)-3-(cyanomethyl)-4-prop-2-enoyl-piperazin-1-yl]-2-[[(2S)-1-ethylpyrrolidin-2-yl]methoxy]-N-(3-hydroxy-1-naphthyl)pyrimidine-4-carboxamide], on K-RAS G12C, the “30 min Category (compound remaining at timepoint)” value is “C (≤30% compound remaining at timepoint)”, the “3 hr Category (compound remaining at timepoint)” value is given as “C (≤30% compound remaining at timepoint)” and the “6 hr Category (compound remaining at timepoint)” value is listed as “C (≤30% compound remaining at timepoint)”. Also, at K-RAS G12D, the “30 min Category (compound remaining at timepoint)” value was “A (≥70% compound remaining at timepoint)”, the “3 hr Category (compound remaining at timepoint)” value is “A (≥70% compound remaining at timepoint)” and the “6 hr Category (compound remaining at timepoint)” value is given as “A (≥70% compound remaining at timepoint)”.
Consider `C=CC(=O)N1CCN(c2cc(C(=O)Nc3cc(O)cc4ccccc34)nc(OC[C@@H]3CCCN3CCO)n2)C[C@@H]1CC#N` [Example 53, 6-[(3S)-3-(cyanomethyl)-4-prop-2-enoyl-piperazin-1-yl]-2-[[(2S)-1-(2-hydroxyethyl)pyrrolidin-2-yl]methoxy]-N-(3-hydroxy-1-naphthyl)pyrimidine-4-carboxamide], for which, on K-RAS G12C, the “30 min Category (compound remaining at timepoint)” value is given as “C (≤30% compound remaining at timepoint)”, the “3 hr Category (compound remaining at timepoint)” value is “C (≤30% compound remaining at timepoint)” and the “6 hr Category (compound remaining at timepoint)” value is on record as “C (≤30% compound remaining at timepoint)”. Besides, at K-RAS G12D, the “30 min Category (compound remaining at timepoint)” value was “A (≥70% compound remaining at timepoint)”, the “3 hr Category (compound remaining at timepoint)” value is given as “A (≥70% compound remaining at timepoint)” and the “6 hr Category (compound remaining at timepoint)” value is “A (≥70% compound remaining at timepoint)”.
Take `C=CC(=O)N1CCN(c2cc(C(=O)Nc3cc(O)cc4ccccc34)nc(OC[C@@H]3CCCN3C(C)C)n2)C[C@@H]1CC#N` [Example 54, 6-[(3S)-3-(cyanomethyl)-4-prop-2-enoyl-piperazin-1-yl]-N-(3-hydroxy-1-naphthyl)-2-[[(2S)-1-isopropylpyrrolidin-2-yl]methoxy]pyrimidine-4-carboxamide]: at K-RAS G12C, the “30 min Category (compound remaining at timepoint)” value is listed as “C (≤30% compound remaining at timepoint)”, the “3 hr Category (compound remaining at timepoint)” value is on record as “C (≤30% compound remaining at timepoint)” and the “6 hr Category (compound remaining at timepoint)” value was “C (≤30% compound remaining at timepoint)”. For the same compound, at K-RAS G12D, the “30 min Category (compound remaining at timepoint)” value is “A (≥70% compound remaining at timepoint)”, the “3 hr Category (compound remaining at timepoint)” value is reported as “A (≥70% compound remaining at timepoint)” and the “6 hr Category (compound remaining at timepoint)” value is “A (≥70% compound remaining at timepoint)”.

Values taken from patent publication US12612387B2, “RAS inhibitors and methods of using the same” (Jazz Pharmaceuticals Ireland Limited, priority 2020, dated 2026).
